The source made the active and inactive calls. The calls are words filed in the database; no cut-off is given here.
Columns and labels:
Canis familiaris [1] = assay: Diuretic activity (po);NI- No Increase; format: functional, organism-based; settings: Canis lupus familiaris; Urine
Rattus norvegicus = species: Rattus norvegicus; assay: Duration of action of the compound; format: functional
[2] = biological target: T1, Angiotensin-converting enzyme (Rattus norvegicus) (UniProt P47820); assay: Inhibition of Angiotensin I converting enzyme at the dose of 30 mg/kg (po) in rat; format: organism-based; design: dose 30 mg/kg; scale not given: the % may be the effect or the level left
T1 sequence (whole entry): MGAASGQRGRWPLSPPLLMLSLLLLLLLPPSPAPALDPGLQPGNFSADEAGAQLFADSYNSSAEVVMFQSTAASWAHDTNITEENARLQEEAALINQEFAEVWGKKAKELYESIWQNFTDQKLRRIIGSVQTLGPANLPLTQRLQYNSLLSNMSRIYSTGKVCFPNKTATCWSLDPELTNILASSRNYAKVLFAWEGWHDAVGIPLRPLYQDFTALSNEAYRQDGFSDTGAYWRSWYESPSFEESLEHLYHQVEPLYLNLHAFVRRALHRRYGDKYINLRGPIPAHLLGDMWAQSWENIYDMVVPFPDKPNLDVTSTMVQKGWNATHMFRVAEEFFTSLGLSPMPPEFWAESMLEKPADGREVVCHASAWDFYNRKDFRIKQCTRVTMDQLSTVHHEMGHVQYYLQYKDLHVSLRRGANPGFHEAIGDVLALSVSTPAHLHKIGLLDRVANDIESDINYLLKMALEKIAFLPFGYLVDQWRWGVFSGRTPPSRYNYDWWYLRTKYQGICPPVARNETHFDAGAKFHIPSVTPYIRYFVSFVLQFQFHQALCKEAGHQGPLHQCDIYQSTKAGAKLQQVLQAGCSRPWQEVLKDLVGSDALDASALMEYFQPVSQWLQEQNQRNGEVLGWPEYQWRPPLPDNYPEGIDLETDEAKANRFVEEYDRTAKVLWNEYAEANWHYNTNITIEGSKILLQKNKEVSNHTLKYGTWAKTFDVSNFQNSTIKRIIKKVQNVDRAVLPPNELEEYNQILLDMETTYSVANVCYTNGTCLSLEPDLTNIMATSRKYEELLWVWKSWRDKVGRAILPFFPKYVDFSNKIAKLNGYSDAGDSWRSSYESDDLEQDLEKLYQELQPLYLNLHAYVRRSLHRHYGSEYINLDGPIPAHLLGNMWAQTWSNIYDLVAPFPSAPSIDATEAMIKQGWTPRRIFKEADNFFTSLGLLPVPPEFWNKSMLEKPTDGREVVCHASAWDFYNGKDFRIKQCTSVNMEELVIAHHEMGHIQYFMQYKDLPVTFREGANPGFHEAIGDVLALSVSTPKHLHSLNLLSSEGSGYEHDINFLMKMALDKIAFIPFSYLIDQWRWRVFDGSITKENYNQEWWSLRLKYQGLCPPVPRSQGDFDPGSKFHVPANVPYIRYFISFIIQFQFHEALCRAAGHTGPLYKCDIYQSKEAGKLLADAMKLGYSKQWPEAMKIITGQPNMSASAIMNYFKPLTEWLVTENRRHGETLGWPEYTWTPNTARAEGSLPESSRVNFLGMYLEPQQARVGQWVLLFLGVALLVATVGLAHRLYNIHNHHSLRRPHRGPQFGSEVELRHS

[3] = biological target: T1, Angiotensin-converting enzyme (Rattus norvegicus); assay: In vitro inhibitory activity against Angiotensin I converting enzyme at 100 uM concentration.
Canis familiaris [4] = assay: Maximum percent decrease in blood pressure at the dose of 1.0 mg/kg ip; format: functional, Canis lupus familiaris; settings: route intraperitoneal
Canis familiaris [5] = assay: Diuretic activity (ip) was tested in dogs; NI-No Increase; format: functional, organism-based; settings: Canis lupus familiaris; Urine
[6] = biological target: Angiotensin-converting enzyme (Homo sapiens) (UniProt P12821); assay: […] inhibitory activity against angiotensin I converting enzyme (ACE) in dog
Angiotensin-converting enzyme (Homo sapiens), sequence (P12821 whole entry): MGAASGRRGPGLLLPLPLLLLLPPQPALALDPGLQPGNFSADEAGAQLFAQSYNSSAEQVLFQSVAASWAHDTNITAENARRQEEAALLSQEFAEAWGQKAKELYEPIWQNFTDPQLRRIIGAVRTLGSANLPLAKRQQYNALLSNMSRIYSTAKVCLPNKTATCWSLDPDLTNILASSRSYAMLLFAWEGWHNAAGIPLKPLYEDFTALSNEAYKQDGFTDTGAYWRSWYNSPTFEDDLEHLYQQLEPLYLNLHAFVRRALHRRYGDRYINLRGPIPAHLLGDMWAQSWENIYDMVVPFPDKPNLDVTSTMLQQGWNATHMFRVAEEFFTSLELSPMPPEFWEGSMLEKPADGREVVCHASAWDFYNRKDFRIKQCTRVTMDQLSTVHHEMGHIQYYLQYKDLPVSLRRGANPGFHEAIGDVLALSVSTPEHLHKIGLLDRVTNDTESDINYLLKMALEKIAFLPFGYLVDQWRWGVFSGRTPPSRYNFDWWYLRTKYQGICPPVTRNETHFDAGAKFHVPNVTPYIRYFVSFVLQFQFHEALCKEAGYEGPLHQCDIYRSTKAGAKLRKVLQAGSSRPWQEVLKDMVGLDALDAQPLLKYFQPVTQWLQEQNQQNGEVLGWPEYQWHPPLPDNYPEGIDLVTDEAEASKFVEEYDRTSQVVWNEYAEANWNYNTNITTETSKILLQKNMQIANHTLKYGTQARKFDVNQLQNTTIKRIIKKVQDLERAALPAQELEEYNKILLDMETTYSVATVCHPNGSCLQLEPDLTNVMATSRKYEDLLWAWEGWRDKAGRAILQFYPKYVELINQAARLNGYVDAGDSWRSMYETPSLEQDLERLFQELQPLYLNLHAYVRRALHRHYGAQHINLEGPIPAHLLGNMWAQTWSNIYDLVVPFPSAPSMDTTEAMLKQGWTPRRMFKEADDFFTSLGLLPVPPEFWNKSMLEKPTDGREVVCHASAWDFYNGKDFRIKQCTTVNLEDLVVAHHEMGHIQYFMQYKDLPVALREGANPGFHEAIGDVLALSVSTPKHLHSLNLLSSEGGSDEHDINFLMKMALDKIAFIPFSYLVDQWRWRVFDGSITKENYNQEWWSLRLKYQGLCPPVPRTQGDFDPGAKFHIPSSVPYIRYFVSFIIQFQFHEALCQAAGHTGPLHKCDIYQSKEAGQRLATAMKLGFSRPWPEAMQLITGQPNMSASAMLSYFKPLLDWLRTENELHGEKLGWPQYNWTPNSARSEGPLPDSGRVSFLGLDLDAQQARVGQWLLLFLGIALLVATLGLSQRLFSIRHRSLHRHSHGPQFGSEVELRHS

Canis familiaris [7] = assay: Diuretic activity (ip) was tested in dogs;ND- Natriuresis and diuresis; format: functional, organism-based; settings: Canis lupus familiaris; Urine
Canis familiaris [8] = assay: Maximum percent decrease in blood pressure at the dose of 100 mg/kg ip; format: functional, Canis lupus familiaris; settings: route intraperitoneal

CCOC(=O)[C@H](CCc1ccccc1)N[C@@H](C)C(=O)N(CC(=O)O)NC(=O)c1ccc(Cl)c(S(N)(=O)=O)c1.Cl
Activity (Canis familiaris [1]): No increase
Duration (Rattus norvegicus): < 1 h
Activity [2]: 50%
inhibition [3]: 40%

CCOC(=O)[C@H](CCc1ccccc1)N[C@@H](C)C(=O)N1CCC[C@H]1C(=O)O [ENALAPRIL]
Decrease (Canis familiaris [4]): 38%
Activity (Canis familiaris [5]): inactive

NS(=O)(=O)c1cc2c(cc1Cl)NCNS2(=O)=O [HYDROCHLOROTHIAZIDE]
ED50 [6]: > 100 mg/kg
Activity (Canis familiaris [7]): Active
Decrease (Canis familiaris [8]): 0%
